Entries after “also recorded” stand apart in the source; their conditions may differ.
Experiments:
[1] = test system: human hair follicle dermal papilla cells; experiment: MTT cell proliferation / survival rate in human hair follicle dermal papilla cells; format: cell-based; conditions: 24 h
Experimental: (§1) All of the tests were performed after obtaining approval of Ethics Commission of Medical College, Kyungpook National University. As samples of hairs, hairs in intact state were collected from scalps in the backs of the heads of male hair transplant patients. All of the hair samples were used with the consent of hair transplant patient who provides the samples. The area of subcutaneous fat of scalp including a hair follicle was isolated from the hair sample, and then the hair follicle was isolated by using a binocular microscope. In order to obtain hair papilla cells, the hair papilla was isolated from the hair follicle, and then shifted to a dish that was coated with bovine type I collagen. Then, the hair papilla in the dish was cultured (in an incubator at 37° C. and 5% CO2) in a DEME (Gibco BRL, Gaithersburg. Md., USA) medium including 20% heat inactivated fetal bovine serum including penicillin (100 U/mL) and streptomycin ([…]). […]
(§2) It was investigated whether or not the hydroxydihydrobovolide compound according to the present invention has an effect on cell proliferation in hair follicle cells and cells in the outer root sheath, in which the cells were closely associated with hair growth. […] After 30 minutes, absorbance of the cells was measured (570 nm).

[2] = test system: hair outer root sheath cells; experiment: MTT cell proliferation / survival rate in hair outer root sheath cells; format: cell-based, human; conditions: 24 h
Experimental: as §1, §2

human hair tissues = experiment: Evaluation of hair growth using human hair tissue culture; format: cell-based; conditions: 5 μM
Experimental: The human hair tissues were supplied from an immunology laboratory in Kyungpook National University. The human hair tissues were cultured in an incubator at 37° C. and CO2 by using Williams E media (Sigma, USA) including 2 mM L-glutamin, 100 U/mL of streptomycin, and 10 ng/ml of hydrocortisone. The test materials with various concentrations were cultured for 6 days, and the lengths of hairs were measured on the third days and sixth day.

## CCCCCC1(O)OC(=O)C(C)=C1C (stereo not drawn) [hydroxydihydrobovolide, 5-hydroxy-3,4-dimethyl-5-pentylfuran-2(5H)-one]
[1]; 0.05 μM, vs untreated control group, p<0.05
  cell proliferation increased by: 144%
[1]; 0.005 to 0.5 μM
  effect on cell proliferation compared with control group: significant cell proliferation effect; also recorded: significant effects on cell proliferation
[2]; 0.5 μM, vs control group, highest effect
  cell proliferation increased by: 156%
[2]; 0.005 to 0.5 μM
  cell proliferation compared with control group: significantly higher cell proliferation rate than the control group; also recorded: significantly higher than that of the control group
Human hair tissues; day 3 of culture
  length of hair on the third day: 0.62 mm
Human hair tissues; day 6 of culture
  length of hair on the sixth day: 1.38 mm
